Data reported in patent US20230085307A1, “PYRIDAZINONE COMPOUND AND HERBICIDE” (NISSAN CHEMICAL CORPORATION, priority 2019, published 2023).

What was measured:
green foxtail [1] = assay: Test Example 5: herbicidal effect by foliage application, plastic box (Table 20, symbol G); format: in vivo, green foxtail (Setaria viridis); details: evaluated three weeks after application
How it was run: (§1)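 Plants were sown into sterilized diluvial soil under about 1.5 cm cover and kept in a greenhouse at 25° C. to 30° C. Fourteen days on, foliage received an even spray of the diluted emulsion. Herbicidal or crop effect was judged three weeks afterwards.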

redroot pigweed [2] = assay: Test Example 5: herbicidal effect by foliage application, plastic box (Table 20, symbol N); format: in vivo, redroot pigweed (Amaranthus retroflexus); details: evaluated three weeks after application
How it was run: as §1

barnyard grass [3] = assay: Test Example 5: herbicidal effect by foliage application, plastic box (Table 20, symbol H); format: in vivo, barnyard grass (Echinochloa crus-galli); details: evaluated three weeks after application
How it was run: as §1

windgrass [4] = assay: Test Example 4: herbicidal effect by soil treatment (Table 19, symbol L); format: in vivo, windgrass (Apera spica-venti); details: amount of applied herbicide 320 g/ha
How it was run: (§2)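 In this soil treatment, the formulated compound reached the seeds only through the soil: seeds were buried about 1.5 cm deep in sterilized diluvial soil, then the diluted emulsion was sprayed over the surface. After three weeks at 25° C. to 30° C. in a greenhouse, effects were graded on criteria from an earlier test.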

chickweed [5] = assay: Test Example 5: herbicidal effect by foliage application, plastic box (Table 20, symbol P); format: in vivo, common chickweed (Stellaria media); details: evaluated three weeks after application
How it was run: as §1

persian speedwell [6] = assay: Test Example 4: herbicidal effect by soil treatment (Table 19, symbol R); format: in vivo, Persian speedwell (Veronica persica); details: amount of applied herbicide 320 g/ha
How it was run: as §2

blackgrass [7] = assay: Test Example 4: herbicidal effect by soil treatment (Table 19, symbol J); format: in vivo, blackgrass (Alopecurus myosuroides); details: amount of applied herbicide 320 g/ha
How it was run: as §2

lambsquarters [8] = assay: Test Example 4: herbicidal effect by soil treatment (Table 19, symbol O); format: in vivo, lambsquarters (Chenopodium album); details: amount of applied herbicide 320 g/ha
How it was run: as §2

rice flat sedge = assay: Test Example 3: herbicidal effect by foliage application, Wagner pot (Table 18, symbol E); format: in vivo, rice flat sedge (Cyperus iria)
How it was run: (§3)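 Plants were sown in alluvial soil held under 0.1–0.5 cm standing water and grown 14 days in a greenhouse at 25–30 °C. An emulsifiable formulation, water-diluted to the set dose, was then sprayed onto the foliage, and effects were scored three weeks later using previously defined criteria.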

Chinese sprangletop = assay: Test Example 3: herbicidal effect by foliage application, Wagner pot (Table 18, symbol D); format: in vivo, chinese sprangletop (Leptochloa chinensis)
How it was run: as §3

wild oat [9] = assay: Test Example 5: herbicidal effect by foliage application, plastic box (Table 20, symbol I); format: in vivo, wild oat (Avena fatua); details: evaluated three weeks after application
How it was run: as §1

southern crabgrass [10] = assay: Test Example 5: herbicidal effect by foliage application, plastic box (Table 20, symbol F); format: in vivo, southern crabgrass (Digitaria ciliaris); details: evaluated three weeks after application
How it was run: as §1

Italian ryegrass [11] = assay: Test Example 5: herbicidal effect by foliage application, plastic box (Table 20, symbol K); format: in vivo, Italian ryegrass (Lolium multiflorum); details: evaluated three weeks after application
How it was run: as §1

barnyard grass [12] = assay: Test Example 4: herbicidal effect by soil treatment (Table 19, symbol H); format: in vivo, barnyard grass (Echinochloa crus-galli); details: amount of applied herbicide 320 g/ha
How it was run: as §2

green foxtail [13] = assay: Test Example 4: herbicidal effect by soil treatment (Table 19, symbol G); format: in vivo, green foxtail (Setaria viridis); details: amount of applied herbicide 320 g/ha
How it was run: as §2

Italian ryegrass [14] = assay: Test Example 4: herbicidal effect by soil treatment (Table 19, symbol K); format: in vivo, Italian ryegrass (Lolium multiflorum); details: amount of applied herbicide 320 g/ha
How it was run: as §2

velvetleaf [15] = assay: Test Example 4: herbicidal effect by soil treatment (Table 19, symbol M); format: in vivo, velvetleaf (Abutilon theophrasti); details: amount of applied herbicide 320 g/ha
How it was run: as §2

southern crabgrass [16] = assay: Test Example 4: herbicidal effect by soil treatment (Table 19, symbol F); format: in vivo, southern crabgrass (Digitaria ciliaris); details: amount of applied herbicide 320 g/ha
How it was run: as §2

wild oat [17] = assay: Test Example 4: herbicidal effect by soil treatment (Table 19, symbol I); format: in vivo, wild oat (Avena fatua); details: amount of applied herbicide 320 g/ha
How it was run: as §2

barnyard grass [18] = assay: Test Example 3: herbicidal effect by foliage application, Wagner pot (Table 18, symbol H); format: in vivo, barnyard grass (Echinochloa crus-galli)
How it was run: as §3

velvetleaf [19] = assay: Test Example 5: herbicidal effect by foliage application, plastic box (Table 20, symbol M); format: in vivo, velvetleaf (Abutilon theophrasti); details: evaluated three weeks after application
How it was run: as §1

blackgrass [20] = assay: Test Example 5: herbicidal effect by foliage application, plastic box (Table 20, symbol J); format: in vivo, blackgrass (Alopecurus myosuroides); details: evaluated three weeks after application
How it was run: as §1

chickweed [21] = assay: Test Example 4: herbicidal effect by soil treatment (Table 19, symbol P); format: in vivo, common chickweed (Stellaria media); details: amount of applied herbicide 320 g/ha
How it was run: as §2

persian speedwell [22] = assay: Test Example 5: herbicidal effect by foliage application, plastic box (Table 20, symbol R); format: in vivo, Persian speedwell (Veronica persica); details: evaluated three weeks after application
How it was run: as §1

lambsquarters [23] = assay: Test Example 5: herbicidal effect by foliage application, plastic box (Table 20, symbol O); format: in vivo, lambsquarters (Chenopodium album); details: evaluated three weeks after application
How it was run: as §1

redroot pigweed [24] = assay: Test Example 4: herbicidal effect by soil treatment (Table 19, symbol N); format: in vivo, redroot pigweed (Amaranthus retroflexus); details: amount of applied herbicide 320 g/ha
How it was run: as §2

windgrass [25] = assay: Test Example 5: herbicidal effect by foliage application, plastic box (Table 20, symbol L); format: in vivo, windgrass (Apera spica-venti); details: evaluated three weeks after application
How it was run: as §1

[26] = amount of applied herbicide 320 g/ha, foliage application after 14-day growth
[27] = amount of applied herbicide 320 g/ha

With `CC(=O)COc1ccc(-c2sc3cc(F)c(F)cc3c2-c2c(O)c(C)nn(C)c2=O)cc1` [5-023] the “Herbicidal effect by foliage application, G: green foxtail” value (green foxtail [1]; [26]) was 4 (Herbicidal rate of 70% or more and less than 90%), the “Herbicidal effect by foliage application, N: redroot pigweed” value (redroot pigweed [2]; [26]) was 5 (Herbicidal rate of 90% or more (almost completely withered)) and the “Herbicidal effect by foliage application, H: barnyard grass” value (barnyard grass [3]; [26]) was 1 (Herbicidal rate of 5% or more and less than 20%). The “L: windgrass, herbicidal effect grade” value (windgrass [4]) was 0 (Herbicidal rate of 5% or less (almost no effect)), the “Herbicidal effect by foliage application, P: chickweed” value (chickweed [5]; [26]) was 5 (Herbicidal rate of 90% or more (almost completely withered)) and the “R: persian speedwell, herbicidal effect grade” value (persian speedwell [6]) was 0 (Herbicidal rate of 5% or less (almost no effect)). The “J: blackgrass, herbicidal effect grade” value (blackgrass [7]) was 0 (Herbicidal rate of 5% or less (almost no effect)), the “O: lambsquarters, herbicidal effect grade” value (lambsquarters [8]) was 2 (Herbicidal rate of 20% or more and less than 40%) and the “herbicidal effect on rice flat sedge (E)” value (rice flat sedge; 320 g/ha) was 0 (Herbicidal rate of 5% or less (almost no effect)). For the same compound, the “herbicidal effect on Chinese sprangletop (D)” value (Chinese sprangletop; 320 g/ha) was 3 (Herbicidal rate of 40% or more and less than 70%), the “Herbicidal effect by foliage application, I: wild oat” value (wild oat [9]; [26]) was 0 (Herbicidal rate of 5% or less (almost no effect)) and the “Herbicidal effect by foliage application, F: southern crabgrass” value (southern crabgrass [10]; [26]) was 0 (Herbicidal rate of 5% or less (almost no effect)). The “Herbicidal effect by foliage application, K: Italian ryegrass” value (Italian ryegrass [11]; [26]) was 0 (Herbicidal rate of 5% or less (almost no effect)), the “H: barnyard grass, herbicidal effect grade” value (barnyard grass [12]) was 0 (Herbicidal rate of 5% or less (almost no effect)) and the “G: green foxtail, herbicidal effect grade” value (green foxtail [13]) was 0 (Herbicidal rate of 5% or less (almost no effect)). The “K: Italian ryegrass, herbicidal effect grade” value (Italian ryegrass [14]) was 0 (Herbicidal rate of 5% or less (almost no effect)), the “M: velvetleaf, herbicidal effect grade” value (velvetleaf [15]) was 0 (Herbicidal rate of 5% or less (almost no effect)) and the “F: southern crabgrass, herbicidal effect grade” value (southern crabgrass [16]) was 0 (Herbicidal rate of 5% or less (almost no effect)). The “I: wild oat, herbicidal effect grade” value (wild oat [17]) was 0 (Herbicidal rate of 5% or less (almost no effect)), the “herbicidal effect on barnyard grass (H)” value (barnyard grass [18]; 320 g/ha) was 4 (Herbicidal rate of 70% or more and less than 90%) and the “Herbicidal effect by foliage application, M: velvetleaf” value (velvetleaf [19]; [26]) was 5 (Herbicidal rate of 90% or more (almost completely withered)). The “Herbicidal effect by foliage application, J: blackgrass” value (blackgrass [20]; [26]) was 0 (Herbicidal rate of 5% or less (almost no effect)), the “P: chickweed, herbicidal effect grade” value (chickweed [21]) was 3 (Herbicidal rate of 40% or more and less than 70%) and the “Herbicidal effect by foliage application, R: persian speedwell” value (persian speedwell [22]; [26]) was 3 (Herbicidal rate of 40% or more and less than 70%). For the same compound, the “Herbicidal effect by foliage application, O: lambsquarters” value (lambsquarters [23]; [26]) was 3 (Herbicidal rate of 40% or more and less than 70%), the “N: redroot pigweed, herbicidal effect grade” value (redroot pigweed [24]) was 3 (Herbicidal rate of 40% or more and less than 70%) and the “Herbicidal effect by foliage application, L: windgrass” value (windgrass [25]; [26]) was 0 (Herbicidal rate of 5% or less (almost no effect)).
In the case of `CCCC(=O)Oc1c(C)nn(C)c(=O)c1-c1c(-c2cccc(OCC)c2)sc2ccc(F)cc12` [2-212], the “herbicidal effect on G: green foxtail (criteria 0-5)” value (green foxtail [1]; foliage application, 320 g/ha) is reported as 5 (Herbicidal rate of 90% or more (almost completely withered)), the “herbicidal effect on N: redroot pigweed (criteria 0-5)” value (redroot pigweed [2]; foliage application, 320 g/ha) is reported as 5 (Herbicidal rate of 90% or more (almost completely withered)) and the “herbicidal effect on H: barnyard grass (criteria 0-5)” value (barnyard grass [3]; foliage application, 320 g/ha) is reported as 4 (Herbicidal rate of 70% or more and less than 90%). For the same compound, the “L: windgrass, herbicidal effect rating” value (windgrass [4]) was 0 (Herbicidal rate of 5% or less (almost no effect)), the “herbicidal effect on P: chickweed (criteria 0-5)” value (chickweed [5]; foliage application, 320 g/ha) was 5 (Herbicidal rate of 90% or more (almost completely withered)) and the “R: persian speedwell, herbicidal effect rating” value (persian speedwell [6]) was 4 (Herbicidal rate of 70% or more and less than 90%). For the same compound, the “J: blackgrass, herbicidal effect rating” value (blackgrass [7]) was 0 (Herbicidal rate of 5% or less (almost no effect)), the “O: lambsquarters, herbicidal effect rating” value (lambsquarters [8]) was 1 (Herbicidal rate of 5% or more and less than 20%) and the “herbicidal effect on E: rice flat sedge” value (rice flat sedge; [27]) was 4 (Herbicidal rate of 70% or more and less than 90%). The “herbicidal effect on D: Chinese sprangletop” value (Chinese sprangletop; [27]) was 3 (Herbicidal rate of 40% or more and less than 70%), the “herbicidal effect on I: wild oat (criteria 0-5)” value (wild oat [9]; foliage application, 320 g/ha) was 0 (Herbicidal rate of 5% or less (almost no effect)) and the “herbicidal effect on F: southern crabgrass (criteria 0-5)” value (southern crabgrass [10]; foliage application, 320 g/ha) was 5 (Herbicidal rate of 90% or more (almost completely withered)). The “herbicidal effect on K: Italian ryegrass (criteria 0-5)” value (Italian ryegrass [11]; foliage application, 320 g/ha) was 4 (Herbicidal rate of 70% or more and less than 90%), the “H: barnyard grass, herbicidal effect rating” value (barnyard grass [12]) was 5 (Herbicidal rate of 90% or more (almost completely withered)) and the “G: green foxtail, herbicidal effect rating” value (green foxtail [13]) was 4 (Herbicidal rate of 70% or more and less than 90%). For the same compound, the “K: Italian ryegrass, herbicidal effect rating” value (Italian ryegrass [14]) was 3 (Herbicidal rate of 40% or more and less than 70%), the “M: velvetleaf, herbicidal effect rating” value (velvetleaf [15]) was 0 (Herbicidal rate of 5% or less (almost no effect)) and the “F: southern crabgrass, herbicidal effect rating” value (southern crabgrass [16]) was 3 (Herbicidal rate of 40% or more and less than 70%). For the same compound, the “I: wild oat, herbicidal effect rating” value (wild oat [17]) was 0 (Herbicidal rate of 5% or less (almost no effect)), the “herbicidal effect on H: barnyard grass” value (barnyard grass [18]; [27]) was 5 (Herbicidal rate of 90% or more (almost completely withered)) and the “herbicidal effect on M: velvetleaf (criteria 0-5)” value (velvetleaf [19]; foliage application, 320 g/ha) was 3 (Herbicidal rate of 40% or more and less than 70%). For the same compound, the “herbicidal effect on J: blackgrass (criteria 0-5)” value (blackgrass [20]; foliage application, 320 g/ha) was 0 (Herbicidal rate of 5% or less (almost no effect)), the “P: chickweed, herbicidal effect rating” value (chickweed [21]) was 1 (Herbicidal rate of 5% or more and less than 20%) and the “herbicidal effect on R: persian speedwell (criteria 0-5)” value (persian speedwell [22]; foliage application, 320 g/ha) was 5 (Herbicidal rate of 90% or more (almost completely withered)). For the same compound, the “herbicidal effect on O: lambsquarters (criteria 0-5)” value (lambsquarters [23]; foliage application, 320 g/ha) was 3 (Herbicidal rate of 40% or more and less than 70%), the “N: redroot pigweed, herbicidal effect rating” value (redroot pigweed [24]) was 3 (Herbicidal rate of 40% or more and less than 70%) and the “herbicidal effect on L: windgrass (criteria 0-5)” value (windgrass [25]; foliage application, 320 g/ha) was 3 (Herbicidal rate of 40% or more and less than 70%).
